Results published in the supplement of paper PMC10307832.

Columns and labels:
Assay in all cases: relative viability (nuclei count vs DMSO), 5 days (fraction); higher = more cells survive
R406 + Bortezomib = compound: COc1cc(Nc2ncc(F)c(Nc3ccc4c(n3)NC(=O)C(C)(C)O4)n2)cc(OC)c1OC [R406] + CC(C)C[C@H](NC(=O)[C@H](Cc1ccccc1)NC(=O)c1cnccn1)B(O)O [Bortezomib] (partner 0.002 µM)
Outline: (§1)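 Lung cancer cell lines were pin-tool dosed in 1536-well plates on the day after seeding, with either a lone drug or a fixed anchor-drug dose plus five library-drug doses (not always all listed) in √10 steps. Nuclei were counted on 4× images after 5 days. Relative viability is the ratio of treated-well to vehicle-well nuclei counts, with each value a median of duplicate plates.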

R406 + Olaparib = compound: COc1cc(Nc2ncc(F)c(Nc3ccc4c(n3)NC(=O)C(C)(C)O4)n2)cc(OC)c1OC [R406] + O=C(c1cc(Cc2n[nH]c(=O)c3ccccc23)ccc1F)N1CCN(C(=O)C2CC2)CC1 [Olaparib] (partner 8 µM)
Outline: as §1

Daporinad + Crizotinib = compound: O=C(/C=C/c1cccnc1)NCCCCC1CCN(C(=O)c2ccccc2)CC1 [Daporinad] + C[C@@H](Oc1cc(-c2cnn(C3CCNCC3)c2)cnc1N)c1c(Cl)ccc(F)c1Cl [Crizotinib] (partner 1 µM)
Outline: as §1

R406 + Luminespib = compound: COc1cc(Nc2ncc(F)c(Nc3ccc4c(n3)NC(=O)C(C)(C)O4)n2)cc(OC)c1OC [R406] + CCNC(=O)c1noc(-c2cc(C(C)C)c(O)cc2O)c1-c1ccc(CN2CCOCC2)cc1 [Luminespib] (partner 0.01 µM)
Outline: as §1

UMC-11
relative viability (R406 + Bortezomib; first compound 0.08 µM): 0.78 | relative viability (R406 + Bortezomib; first compound 0.253 µM): 0.996 | relative viability (R406 + Bortezomib; first compound 0.8 µM): 0.99 | relative viability (R406 + Bortezomib; first compound 2.53 µM): 0.251 | relative viability (R406 + Bortezomib; first compound 8 µM): 0.342 | relative viability (R406 + Olaparib; first compound 0.08 µM): 0.392 | relative viability (R406 + Olaparib; first compound 0.253 µM): 0.348 | relative viability (R406 + Olaparib; first compound 0.8 µM): 0.342 | relative viability (R406 + Olaparib; first compound 2.53 µM): 0.363 | relative viability (R406 + Olaparib; first compound 8 µM): 0.199 | relative viability (Daporinad + Crizotinib; first compound 0.0005 µM): 0.672 | relative viability (Daporinad + Crizotinib; first compound 0.001581 µM): 0.641 | relative viability (Daporinad + Crizotinib; first compound 0.005 µM): 0.852 | relative viability (Daporinad + Crizotinib; first compound 0.01581 µM): 0.656 | relative viability (R406 + Luminespib; first compound 0.08 µM): 1.09 | relative viability (R406 + Luminespib; first compound 0.253 µM): 1.07 | relative viability (R406 + Luminespib; first compound 0.8 µM): 1.12 | relative viability (R406 + Luminespib; first compound 2.53 µM): 0.835 | relative viability (R406 + Luminespib; first compound 8 µM): 0.418
